The term IC50 denotes the concentration that gives 50% inhibition. High values mean a need for much substance, low ones inhibition by little substance.

The values below come from US11286255B2, “Pyridone carboxylic acid derivative or salt thereof” (WAKUNAGA PHARMACEUTICAL CO., LTD., priority 2017, dated 2022).

One assay relates to NCI-H460 (human non-small cell lung cancer cell line). The experiment in a line: In vitro cell growth inhibition test against NCI-H460. The following applies: 72 h, NCI-H460 cells, 3 days culture, WST-8 (Cell Counting Kit-8), 50% growth inhibition concentration. It is filed as cell-based. As to the method:
Test Example 1: In Vitro Cell Growth Inhibition Test Against NCI-H460 (Human Non-Small Cell Lung Cancer Cell Line)
An NCI-H460 cell suspension was inoculated at 4×10^3 cells/100 μL/well (0.1 mL) to a 96-well flat-bottomed multiplate using RPMI-1640 (Sigma-Aldrich Co. LLC, R8758) medium containing 10% […] (fetal bovine serum, Thermo Fisher Scientific Inc.), and cultured at 37° C. for 1 day in an incubator containing 5% carbon dioxide. The compound of the present invention was dissolved at a concentration of 1 mM in dimethyl sulfoxide and further diluted into 5.00, 2.50, 1.25, 0.63, 0.31, 0.16, 0.078, and 0.039 μM (final concentrations) using dimethyl sulfoxide and RPMI-1640 medium. Each of these dilutions was added at 0.1 mL/well to the culture plate of the NCI-H460 cells mentioned above after removal of the medium, and the cells were cultured at 37° C. for 3 days in an incubator containing 5% carbon dioxide.
After the culture, Cell Counting Kit-8 (Dojindo Laboratories), which adopts WST-8 [2-(2-methoxy-4-nitrophenyl)-3-(4-nitrophenyl)-5-(2,4-disulfophenyl)-2H-tetrazolium monosodium salt] as a chromogenic substrate, was added at 10 μL/well, and the cells were cultured under the same conditions as above for 1 hour, followed by measurement of absorbance at 450 nm. A cell survival rate was calculated in terms of 50% growth inhibition concentration (IC50 (μM)) by the least square method with that of a control group defined as 100%.
For orientation: Tetrazolium assays rely on reduction of a dye to a coloured formazan, in cell work by metabolically active cells.
Take `CCOCCNC(=O)C1CN(c2cc(C)c3c(=O)c(C(=O)O)cn(-c4nc(-c5cccnc5)cs4)c3n2)C1` [Example 414, 7-{3-[(2-Ethoxyethyl)carbamoyl]azetidin-1-yl}-5-methyl-4-oxo-1-[4-(pyridin-3-yl)-1,3-thiazol-2-yl]-1,4-dihydro-1,8-naphthyridine-3-carboxylic acid]: the IC50 was determined as 400 nM. On to `Cc1cnc(C2CN(c3cc(C)c4c(=O)c(C(=O)O)cn(-c5ncns5)c4n3)C2)o1` [Example 489, 5-Methyl-7-[3-(5-methyl-1,3-oxazol-2-yl)azetidin-1-yl]-4-oxo-1-(1,2,4-thiadiazol-5-yl)-1,4-dihydro-1,8-naphthyridine-3-carboxylic acid], for which the IC50 came out at 260 nM. Same read-out and setting: the figure for `O=C(O)c1cn(-c2nccs2)c2nc(N3CC(CNc4ccccn4)C3)c(F)cc2c1=O` [Example 561, 6-Fluoro-4-oxo-7-(3-{[(pyridin-2-yl)amino]methyl}azetidin-1-yl)-1-(1,3-thiazol-2-yl)-1,4-dihydro-1,8-naphthyridine-3-carboxylic acid] is 900 nM.

In turn, `CC(=O)C1CN(c2cc(C)c3c(=O)c(C(=O)O)cn(-c4nccs4)c3n2)C1` [Example 020, 7-(3-Acetylazetidin-1-yl)-5-methyl-4-oxo-1-(1,3-thiazol-2-yl)-1,4-dihydro-1,8-naphthyridine-3-carboxylic acid] yielded an IC50 of 340 nM.

Consider `Cc1c(F)c(N2CC(n3cccn3)C2)nc2c1c(=O)c(C(=O)O)cn2-c1nccs1` [Example 487, 6-Fluoro-5-methyl-4-oxo-7-[3-(1H-pyrazol-1-yl)azetidin-1-yl]-1-(1,3-thiazol-2-yl)-1,4-dihydro-1,8-naphthyridine-3-carboxylic acid], for which the half-inhibitory concentration (IC50) worked out at 160 nM. In turn, `CNOC1CN(c2cc(C)c3c(=O)c(C(=O)O)cn(-c4ncns4)c3n2)C1` [Example 553, 5-methyl-7-{3-[(methylamino)oxy]azetidin-1-yl}-4-oxo-1-(1,2,4-thiadiazol-5-yl)-1,4-dihydro-1,8-naphthyridine-3-carboxylic acid] gave an IC50 of 380 nM.

The compound `O=C(O)c1cn(-c2nccs2)c2nc(N3CC(C(=O)Nc4ccccn4)C3)c(F)cc2c1=O` [Example 083, 6-Fluoro-4-oxo-7-{3-[(pyridin-2-yl)carbamoyl]azetidin-1-yl}-1-(1,3-thiazol-2-yl)-1,4-dihydro-1,8-naphthyridine-3-carboxylic acid] displayed a concentration for half-maximal inhibition (IC50) of 190 nM. As for `O=C(O)c1cn(-c2nccs2)c2nc(N3CC(C(=O)NCC4CCCCO4)C3)c(F)cc2c1=O` (centres unmarked) [Example 173, 6-Fluoro-7-{3-[(oxan-2-ylmethyl)carbamoyl]azetidin-1-yl}-4-oxo-1-(1,3-thiazol-2-yl)-1,4-dihydro-1,8-naphthyridine-3-carboxylic acid], inhibition was half-maximal at 260 nM (IC50).

`O=C(O)c1cn(-c2ncns2)c2nc(N3CC(NOCc4ccccc4)C3)c(F)cc2c1=O` [Example 549, 7-{3-[(Benzyloxy)amino]azetidin-1-yl}-6-fluoro-4-oxo-1-(1,2,4-thiadiazol-5-yl)-1,4-dihydro-1,8-naphthyridine-3-carboxylic acid] came in with a concentration for half-maximal inhibition (IC50) of 190 nM. With `CCONC1CN(c2cc(C)c3c(=O)c(C(=O)O)cn(-c4ncns4)c3n2)C1` [Example 541, 7-[3-(Ethoxyamino)azetidin-1-yl]-5-methyl-4-oxo-1-(1,2,4-thiadiazol-5-yl)-1,4-dihydro-1,8-naphthyridine-3-carboxylic acid], the half-maximal inhibitory concentration (IC50) was 390 nM.

Compound `CCCn1nc(NC(=O)C2CN(c3nc4c(c(C)c3F)c(=O)c(C(=O)O)cn4-c3ncns3)C2)cc1C` [Example 218, 6-Fluoro-5-methyl-7-{3-[(5-methyl-1-propyl-1H-pyrazol-3-yl)carbamoyl]azetidin-1-yl}-4-oxo-1-(1,2,4-thiadiazol-5-yl)-1,4-dihydro-1,8-naphthyridine-3-carboxylic acid] came in with an IC50 of 260 nM. Same read-out and setting: under `Cc1cc(N2CC(c3ccon3)C2)nc2c1c(=O)c(C(=O)O)cn2-c1ncns1` [Example 499, 5-Methyl-7-[3-(1,2-oxazol-3-yl)azetidin-1-yl]-4-oxo-1-(1,2,4-thiadiazol-5-yl)-1,4-dihydro-1,8-naphthyridine-3-carboxylic acid] stands 200 nM; under `Cc1ccc(C(=O)NC2CN(c3cc(C)c4c(=O)c(C(=O)O)cn(-c5ncns5)c4n3)C2)nc1` [Example 584, 5-Methyl-7-[3-(5-methylpyridine-2-amido)azetidin-1-yl]-4-oxo-1-(1,2,4-thiadiazol-5-yl)-1,4-dihydro-1,8-naphthyridine-3-carboxylic acid], 210 nM. `Cc1ccc(C(=O)NC2CN(c3nc4c(cc3F)c(=O)c(C(=O)O)cn4-c3nccs3)C2)nc1` [Example 586, 6-Fluoro-7-[3-(5-methylpyridine-2-amido)azetidin-1-yl]-4-oxo-1-(1,3-thiazol-2-yl)-1,4-dihydro-1,8-naphthyridine-3-carboxylic acid] registered an IC50 of 410 nM. Take `COCC(COC)NC(=O)C1CN(c2cc(C)c3c(=O)c(C(=O)O)cn(-c4nccs4)c3n2)C1` [Example 243, 7-{3-[(1,3-Dimethoxypropan-2-yl)carbamoyl]azetidin-1-yl}-5-methyl-4-oxo-1-(1,3-thiazol-2-yl)-1,4-dihydro-1,8-naphthyridine-3-carboxylic acid]: half-maximal inhibition (IC50) required 220 nM. `CCOCC(COCC)NC(=O)C1CN(c2cc(C)c3c(=O)c(C(=O)O)cn(-c4nccs4)c3n2)C1` [Example 006, 7-{3-[(1,3-Diethoxypropan-2-yl)carbamoyl]azetidin-1-yl}-5-methyl-4-oxo-1-(1,3-thiazol-2-yl)-1,4-dihydro-1,8-naphthyridine-3-carboxylic acid] registered an IC50 of 110 nM.

Another assay deals with relapsed/refractory acute myeloid leukemia.
Assay: not given
To be noted: overall survival targeting all patients; cited from earlier work.
Consider `CNC1CN(c2ccc3c(=O)c(C(=O)O)cn(-c4nccs4)c3n2)CC1OC` (centres unmarked) [the compound, 1,4-dihydro-7-(3-methoxy-4-methylamino-1-pyrrolidinyl)-4-oxo-1-(2-thiazolyl)-1,8-naphthyridine-3-carboxylic acid, reference compound], for which the “therapeutic effect in overall survival (primary endpoint) as compared with a placebo group” value was “does not exhibit a significant therapeutic effect”.
